Test results reported in PMC6006364, “D-Cateslytin: a new antifungal agent for the treatment of oral Candida albicans associated infections” (Scientific Reports, 2018).
Values after ≈ are worked out from the molar mass of the structure shown. Non-standard residues stand in square brackets, D forms with d. Residues, ends and D or L forms follow the SMILES beside them. No end group written: not given here. rhodamine = not defined here

Columns and labels:
[1] = tested on: Candida albicans (ATCC 10231); test: microbe, parasite or virus in culture; type: cell-based; conditions: for minimal inhibitory concentration (MIC): ATCC 10231, 24 h
Experimental: Candida albicans (ATCC© 10231^TM) was cultured in Sabouraud medium (Sigma-Aldrich) supplemented with tetracycline (10 μg/mL) and cefotaxime (10 μg/mL) at 37 °C for 24 h. Candida albicans (OD600nm = 0,001) were plated in 96-well plates and treated either with different concentrations of the peptides of interest, and/or with different concentrations of voriconazole (VCZ) (Sigma-Aldrich). As a positive control, cells were treated with 10 μg/mL VCZ. After 24 hours incubation, yeast growth was assessed by optical density OD600nm using a spectrophotometer (Multiscan EX). The MIC of the antifungal agents, defined as the lowest concentration of drug able to inhibit 100% of the growth of a pathogen was determined using a modified Gompertz model.

[2] = tested on: proteases secreted by Candida albicans; test: Peptide stability in the supernatant of Candida albicans (HPLC); type: in vitro ADME; conditions: peptide 186 μg/mL = 100 μM in 100 μL filtered supernatant, 37 °C, 24 h; RP-HPLC C18, 214 nm; repeated three times
Experimental: The supernatant of Candida albicans was prepared as follows: a single colony of Candida albicans was resuspended in 5 mL of Sabouraud medium and incubated at 37 °C overnight. The culture was then centrifuged at 10000 g for 1 min and the supernatant was filtered using a 0.22 μm MillexH-GV (Merck Millipore). In order to check sterility, an aliquot of the supernatant was incubated at 37 °C for 48 h. The absence of growth was interpreted as a lack of viable microorganism.
100 μL of supernatant was then directly incubated or not with L-Ctl or D-Ctl (186 μg/mL = 100 μM) at 37 °C for 24 h. As a control, each peptide (186 μg/mL = 100 μM) as well as the combination ½ MICD-Ctl + ¼ MICVCZ were incubated in water (100 μL) at 37 °C for 24 h. Samples were then separated using a Dionex HPLC system (Ultimate 3000) on a Nucleosil reverse-phase 300–5C18-column (4.6 × 250 mm; particle size: 5 μm; porosity, 300 Å) (Macherey Nagel). Absorbance was monitored at 214 nm and the solvent system consisted of 0.1% (v/v) TFA in water (solvent A) and 0.09% (v/v) TFA in 70% (v/v) acetonitrile-water (solvent B). Elution was performed at a flow rate of 700 μL/min with a gradient of solvent B as indicated on the chromatograms. Each peak was manually collected.

[3] = tested on: Candida albicans (ATCC 10231); test: Antifungal combination test D-Ctl + voriconazole (FIC index); type: cell-based
Experimental: Candida albicans (ATCC© 10231^TM) was cultured in Sabouraud medium (Sigma-Aldrich) supplemented with tetracycline (10 μg/mL) and cefotaxime (10 μg/mL) at 37 °C for 24 h. Candida albicans (OD600nm = 0,001) were plated in 96-well plates and treated either with different concentrations of the peptides of interest, and/or with different concentrations of voriconazole (VCZ) (Sigma-Aldrich). As a positive control, cells were treated with 10 μg/mL VCZ. After 24 hours incubation, yeast growth was assessed by optical density OD600nm using a spectrophotometer (Multiscan EX). The efficiency of the combination between D-Ctl and VCZ was determined by the calculation of the Fractional inhibitory concentration index (FICI) according to the following formula: FICI = FICD-Ctl + […] = (MICD-Ctl in combination/MICD-Ctl alone) + ([…] in combination/[…] alone) . According to EUCAST[38], the effect of the combination is synergistic if FICI ≤ 0,5, additive if 0,5 < FICI ≤ 1, indifferent if 1 < FICI < 2 and antagonistic if FICI ≥ 2.

[4] = tested on: Candida albicans; test: Time-lapse video microscopy of Candida albicans with rhodamine-labelled peptides; type: cell-based; conditions: for entry into C. albicans: 10 × MIC, 30 min incubation at 37 °C, fluorescence microscopy
Experimental: Diluted precultures (1/1000) of Candida albicans were incubated for 1 hour at 37 °C without agitation in glass bottom μ-Dish^35mm,high (Ibidi) previously treated with poly-L-lysine. […] To perform time-lapse video microscopy, the peptides were removed and replaced by Sabouraud medium. Yeasts were then plated at 37 °C, 5% CO2, on a Nikon Eclipse Ti inverted microscope equipped with an Andor Zyla sCMOS camera and a 60X objective. To prevent evaporation, a layer of mineral oil (Sigma) was added on top of the media prior imaging. Images (fluorescence and phase contrast) were captured every 10 min for 20 hours using Nikon NIS-Elements AR software, and processed with ImageJ.

| Molecule | minimal inhibitory concentration (MIC) [1] [µg/mL] | stability in the supernatant of Candida albicans [2] | entry into C. albicans [4] | also measured |
| --- | --- | --- | --- | --- |
| CSCC[C@@H](NC(=O)[C@@H](CO)NC(=O)[C@H](N)CCCNC(=N)N)C(=O)N[C@H](CCCNC(=N)N)C(=O)N[C@H](CC(C)C)C(=O)N[C@H](CO)C(=O)N[C@H](Cc1ccccc1)C(=O)N[C@H](CCCNC(=N)N)C(=O)N[C@H](C)C(=O)N[C@H](CCCNC(=N)N)C(=O)NCC(=O)N[C@H](Cc1ccc(O)cc1)C(=O)NCC(=O)N[C@H](Cc1ccccc1)C(=O)N[C@H](CCCNC(=N)N)C(=O)O [D-Ctl, D-Cateslytin] (H-[dR][dS][dM][dR][dL][dS][dF][dR][dA][dR]G[dY]G[dF][dR]-OH) | 5.5 (≈ 2.96 µM) | still present |  |  |
| CSCC[C@H](NC(=O)[C@H](CO)NC(=O)[C@@H](N)CCCNC(=N)N)C(=O)N[C@@H](CCCNC(=N)N)C(=O)N[C@@H](CC(C)C)C(=O)N[C@@H](CO)C(=O)N[C@@H](Cc1ccccc1)C(=O)N[C@@H](CCCNC(=N)N)C(=O)N[C@@H](C)C(=O)N[C@@H](CCCNC(=N)N)C(=O)NCC(=O)N[C@@H](Cc1ccc(O)cc1)C(=O)NCC(=O)N[C@@H](Cc1ccccc1)C(=O)N[C@@H](CCCNC(=N)N)C(=O)O [L-Ctl, Cateslytin] (H-RSMRLSFRARGYGFR-OH) | 7.9 (≈ 4.25 µM) | the peak of L-Ctl disappeared |  |  |
| C[C@@H](c1ncncc1F)[C@](O)(Cn1cncn1)c1ccc(F)cc1F [VCZ, voriconazole] |  |  |  | FIC (fractional inhibitory concentration) of the single agent in the combination ([3]; MIC in combination / MIC alone): 0.5; fold decrease of VCZ concentration by adding D-Ctl ([3]; with ½ MIC D-Ctl): 4; concentration of VCZ in the combination (¼ MIC VCZ) ([3]; with ½ MIC D-Ctl, kills 100% of C. albicans): 0.018 µg/mL; MIC ([1]; Candida albicans, ATCC10231, lowest concentration inhibiting 100% of C. albicans growth, Sabouraud medium, 24 h, OD600nm, average of at least three experiments, read-out: minimal inhibitory concentration (MIC)): 0.07 µg/mL (≈ 0.2 µM) |
| Rho-D-Ctl: D-Ctl with a rhodamine moiety on the N-terminal end, used for video microscopy (rhodamine-[dR][dS][dM][dR][dL][dS][dF][dR][dA][dR]G[dY]G[dF][dR]; reading uncertain) |  |  | able to enter | effect on colonies totally invaded ([4]; Rho-D-Ctl 10 × MIC (55 μg/mL), time-lapse video microscopy): systematic arrest of fungal growth and ongoing cellular divisions |
| Rho-L-Ctl: L-Ctl with a rhodamine moiety on the N-terminal end, used for video microscopy (rhodamine-RSMRLSFRARGYGFR; reading uncertain) |  |  | able to enter |  |
